Values joined by “and” are separate entries in the source; they are usually repeats but may differ in a detail not shown here. Identical values can stand only once.
Experiments:
MAPK14 (rat) [1] = test: Animal Model; conditions: mesencephalon tissue
MAPK14 (rat) [2] = test: Cell-Based Assay; conditions: mesencephalic neurons
MAPK14 (rat) [3] = test: Cell-Based Assay; conditions: mesencephalic neurons; remark: listed apart in the source

SMILES | cell count (MAPK14 (rat) [1]) | cell count (MAPK14 (rat) [2]) [cm-2] | response (MAPK14 (rat) [2]) [cm2] | cell count (MAPK14 (rat) [3]) [cm-2] | response (MAPK14 (rat) [3])
O=[N+]([O-])c1ccc(-c2nc(-c3ccc(F)cc3)c(-c3ccncc3)[nH]2)cc1 | 3020 | 421 | 454 | 283 | 400 cm2 and 570 cm2
Oc1ccc(-c2nc(-c3ccc(F)cc3)c(-c3ccncc3)[nH]2)cc1 | – | – | – | 283 | 600 cm2 and 473 cm2

Reference: the Kinase Knowledgebase extract (Sharma et al. 2016)
